Experimental findings from the NIST ThermoML archive (doi:10.1016/j.fluid.2007.09.001) are described below.

The conditions of data set [1]: Liquid; Ebulliometric method (Recirculating still).
A short description of data set [2]: refractive index (Na D-line) (dimensionless). Conditions: 293.15 K; 101.33 kPa; Liquid; Standard Abbe refractometry.

Each structure is given as a SMILES string. ± gives the expanded uncertainty stated by the source.

For the compound `CC(O)C(C)O` (stereo not drawn) [2,3-butanediol], in data set [1], the Normal boiling temperature stood at 181.06 ± 0.5 °C. In data set [2], the refractive index is 1.4375 ± 0.0021.
Regarding `CCCCO` [butan-1-ol], the Normal boiling temperature in data set [1] was found to be 116.97 ± 0.5 °C. In addition, in data set [2], the refractive index is given as 1.3993 ± 0.0021.
Take `CCCCOC(C)=O` [butyl ethanoate]: the Normal boiling temperature in data set [1] amounted to 125.96 ± 0.5 °C. In addition, the refractive index in data set [2] is recorded as 1.3941 ± 0.0021.
For `CCOC(C)=O` [ethyl acetate], in that order: 77.09 ± 0.5 °C and 1.3701 ± 0.0021.

In general, refractive index refers to a measure of how strongly the sample bends light.
